Data reported in PMC7211203 (European Journal of Drug Metabolism and Pharmacokinetics, 2020).
Read-outs that look alike come from different tables or passages of the source.

Columns and labels:
[1] = tested on: CYP3A; conditions: open-label, fixed-sequence study in 16 cancer patients; cited from earlier work
[2] = format: in vivo, human; conditions: for AUC0–24 / Cmax / t1/2: mean (SD); for tmax: median (minimum, maximum)
[3] = biological target: CYP3A4 (Homo sapiens, UniProt P08684); format: in vivo
Chain of CYP3A4 (P08684 whole entry): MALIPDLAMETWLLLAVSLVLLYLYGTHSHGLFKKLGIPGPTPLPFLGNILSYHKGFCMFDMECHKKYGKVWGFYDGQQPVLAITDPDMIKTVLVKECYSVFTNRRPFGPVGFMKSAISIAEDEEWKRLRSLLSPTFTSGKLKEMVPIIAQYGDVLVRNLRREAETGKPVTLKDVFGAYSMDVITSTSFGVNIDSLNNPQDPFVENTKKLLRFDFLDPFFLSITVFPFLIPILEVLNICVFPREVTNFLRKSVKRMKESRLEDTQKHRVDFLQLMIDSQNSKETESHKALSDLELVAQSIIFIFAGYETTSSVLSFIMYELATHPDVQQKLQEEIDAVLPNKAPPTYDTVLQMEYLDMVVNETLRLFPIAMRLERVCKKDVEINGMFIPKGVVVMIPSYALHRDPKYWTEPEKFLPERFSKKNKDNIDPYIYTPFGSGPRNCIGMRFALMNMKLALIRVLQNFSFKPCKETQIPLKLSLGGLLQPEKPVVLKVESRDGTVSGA

[4] = D −3, patients of comparison D1 vs D −3
[5] = D −3, patients of comparison D14 vs D −3
[6] = Day 1, with single dose of lenvatinib
[7] = Day 14, with lenvatinib at steady state
[8] = D1 vs D −3 (single dose of lenvatinib 24 mg)
[9] = D14 vs D −3 (lenvatinib 24 mg at steady state)

CO[C@H]1C[C@@H]2CC[C@@H](C)[C@@](O)(O2)C(=O)C(=O)N2CCCC[C@H]2C(=O)O[C@H]([C@H](C)C[C@@H]2CC[C@@H](OP(C)(C)=O)[C@H](OC)C2)CC(=O)[C@H](C)/C=C(\C)[C@@H](O)[C@@H](OC)C(=O)[C@H](C)C[C@H](C)/C=C/C=C/C=C/1C [Ridaforolimus, ridaforolimus]
Impact on CYP3A (midazolam probe) [1]: minimal inhibitory impact on CYP3A

OCc1ncc2n1-c1ccc(Cl)cc1C(c1ccccc1F)=NC2 [1′-OH midazolam, 1′-hydroxy-midazolam]
Plasma concentration, mean (standard deviation) ([2]; 0.5 h, D1 1 dose of lenvatinib and midazolam): 10.433 (11.8436) ng/mL
Plasma concentration, mean (standard deviation) ([2]; 0.5 h, D14 multiple doses of lenvatinib and 1 dose of midazolam): 8.048 (12.1629) ng/mL
Plasma concentration, mean (standard deviation) ([2]; 0.5 h, D −3 midazolam only): 7.929 (8.1952) ng/mL
Plasma concentration, mean (standard deviation) ([2]; 1 h, D1 1 dose of lenvatinib and midazolam): 9.230 (9.8222) ng/mL
Plasma concentration, mean (standard deviation) ([2]; 1 h, D14 multiple doses of lenvatinib and 1 dose of midazolam): 8.884 (8.9281) ng/mL
Plasma concentration, mean (standard deviation) ([2]; 1 h, D −3 midazolam only): 8.259 (6.9675) ng/mL
Plasma concentration, mean (standard deviation) ([2]; 1.5 h, D1 1 dose of lenvatinib and midazolam): 8.265 (9.0440) ng/mL
Plasma concentration, mean (standard deviation) ([2]; 1.5 h, D14 multiple doses of lenvatinib and 1 dose of midazolam): 7.314 (6.7286) ng/mL
Plasma concentration, mean (standard deviation) ([2]; 1.5 h, D −3 midazolam only): 7.307 (5.9056) ng/mL
Plasma concentration, mean (standard deviation) ([2]; 2 h, D1 1 dose of lenvatinib and midazolam): 6.921 (8.0144) ng/mL
Plasma concentration, mean (standard deviation) ([2]; 2 h, D14 multiple doses of lenvatinib and 1 dose of midazolam): 5.767 (5.0953) ng/mL
Plasma concentration, mean (standard deviation) ([2]; 2 h, D −3 midazolam only): 5.736 (4.1774) ng/mL
Plasma concentration, mean (standard deviation) ([2]; 3 h, D1 1 dose of lenvatinib and midazolam): 4.888 (7.3050) ng/mL
Plasma concentration, mean (standard deviation) ([2]; 3 h, D14 multiple doses of lenvatinib and 1 dose of midazolam): 4.027 (3.2372) ng/mL
Plasma concentration, mean (standard deviation) ([2]; 3 h, D −3 midazolam only): 3.698 (2.9719) ng/mL
Plasma concentration, mean (standard deviation) ([2]; 4 h, D1 1 dose of lenvatinib and midazolam): 3.395 (5.2011) ng/mL
Plasma concentration, mean (standard deviation) ([2]; 4 h, D14 multiple doses of lenvatinib and 1 dose of midazolam): 2.919 (2.1611) ng/mL
Plasma concentration, mean (standard deviation) ([2]; 4 h, D −3 midazolam only): 2.359 (1.9899) ng/mL
Plasma concentration, mean (standard deviation) ([2]; 6 h, D1 1 dose of lenvatinib and midazolam): 2.059 (2.3381) ng/mL
Plasma concentration, mean (standard deviation) ([2]; 6 h, D14 multiple doses of lenvatinib and 1 dose of midazolam): 1.773 (1.4213) ng/mL
Plasma concentration, mean (standard deviation) ([2]; 6 h, D −3 midazolam only): 1.447 (1.4379) ng/mL
Plasma concentration, mean (standard deviation) ([2]; 8 h, D1 1 dose of lenvatinib and midazolam): 1.132 (1.0593) ng/mL
Plasma concentration, mean (standard deviation) ([2]; 8 h, D14 multiple doses of lenvatinib and 1 dose of midazolam): 1.372 (1.2790) ng/mL
Plasma concentration, mean (standard deviation) ([2]; 8 h, D −3 midazolam only): 1.024 (0.9525) ng/mL
Plasma concentration, mean (standard deviation) ([2]; 10 h, D1 1 dose of lenvatinib and midazolam): 0.852 (0.7166) ng/mL
Plasma concentration, mean (standard deviation) ([2]; 10 h, D14 multiple doses of lenvatinib and 1 dose of midazolam): 1.055 (1.0511) ng/mL
Plasma concentration, mean (standard deviation) ([2]; 10 h, D −3 midazolam only): 0.767 (0.6376) ng/mL
Plasma concentration, mean (standard deviation) ([2]; 24 h, D1 1 dose of lenvatinib and midazolam): 0.186 (0.1472) ng/mL
Plasma concentration, mean (standard deviation) ([2]; 24 h, D14 multiple doses of lenvatinib and 1 dose of midazolam): 0.282 (0.1998) ng/mL
Plasma concentration, mean (standard deviation) ([2]; 24 h, D −3 midazolam only): 0.158 (0.1110) ng/mL
AUC0–24 geometric mean, lenvatinib + midazolam (test) ([2]; D1, comparison D1 vs D −3): 37.91 ng·h/mL
Cmax geometric mean, lenvatinib + midazolam (test) ([2]; D1, comparison D1 vs D −3): 9.54 ng/mL
AUC0–24 geometric mean, lenvatinib + midazolam (test) ([2]; D14, comparison D14 vs D −3): 36.93 ng·h/mL
Cmax geometric mean, lenvatinib + midazolam (test) ([2]; D14, comparison D14 vs D −3): 8.24 ng/mL
AUC0–24 geometric mean, midazolam (reference) [2, 4]: 33.84 ng·h/mL
Cmax geometric mean, midazolam (reference) [2, 4]: 9.04 ng/mL
AUC0–24 geometric mean, midazolam (reference) [2, 5]: 30.81 ng·h/mL
Cmax geometric mean, midazolam (reference) [2, 5]: 8.76 ng/mL
AUC0–24 ([2]; Day 1, midazolam with single dose of lenvatinib 24 mg, n = 28): 48.6 (47.8) ng × h/mL
Cmax [2, 6]: 12.7 (11.6) ng/mL
t1/2 [2, 6]: 5.48 (2.26) h
tmax [2, 6]: 0.75 (0.25, 2.00) h
AUC0–24 ([2]; Day 14, midazolam with lenvatinib at steady state, n = 19): 41.3 (34.3) ng × h/mL
Cmax [2, 7]: 10.7 (11.6) ng/mL
t1/2 [2, 7]: 5.53 (1.99) h
tmax [2, 7]: 0.77 (0.25, 1.50) h
AUC0–24 ([2]; Day −3, midazolam 4 mg oral alone, n = 29): 38.5 (26.5) ng × h/mL
Cmax ([2]; Day −3, midazolam alone): 11.0 (8.64) ng/mL
t1/2 ([2]; Day −3, midazolam alone): 5.58 (1.15) h
tmax ([2]; Day −3, midazolam alone): 0.75 (0.25, 2.02) h
Change in t1/2 when administered with lenvatinib ([3]; D1 and D14 vs D −3): no statistically significant change
Difference in median tmax ([3]; D1 vs D −3): 0.00 h
AUC0–24 geometric mean ratio (test/reference) [3, 8]: 1.120
Cmax geometric mean ratio (test/reference) [3, 8]: 1.055
Difference in median tmax ([3]; D14 vs D −3): 0.00 h
AUC0–24 geometric mean ratio (test/reference) [3, 9]: 1.199
Cmax geometric mean ratio (test/reference) [3, 9]: 0.940
